According to article PMC10623271 (Heliyon, 2023):

Molecular target: α-glucosidase from Bacillus stearothermophilus
Experiment: α-glucosidase assay
Assay type: biochemical
Conditions: positive control, pNPG, 20 min 60 °C, pH 6.8, ± SD

- IC50: 2.9 ± 0.4 nM
Structure (SMILES): C[C@H]1O[C@H](O[C@H]2[C@H](O)[C@@H](O)[C@@H](O[C@H]3[C@H](O)[C@@H](O)C(O)O[C@@H]3CO)O[C@@H]2CO)[C@H](O)[C@@H](O)[C@@H]1N[C@H]1C=C(CO)[C@@H](O)[C@H](O)[C@H]1O (stereo partly shown) [Acarbose, acarbose]
